Target: T1, human LTA4 hydrolase (Homo sapiens, UniProt P09960)
T1 sequence (P09960 1-611): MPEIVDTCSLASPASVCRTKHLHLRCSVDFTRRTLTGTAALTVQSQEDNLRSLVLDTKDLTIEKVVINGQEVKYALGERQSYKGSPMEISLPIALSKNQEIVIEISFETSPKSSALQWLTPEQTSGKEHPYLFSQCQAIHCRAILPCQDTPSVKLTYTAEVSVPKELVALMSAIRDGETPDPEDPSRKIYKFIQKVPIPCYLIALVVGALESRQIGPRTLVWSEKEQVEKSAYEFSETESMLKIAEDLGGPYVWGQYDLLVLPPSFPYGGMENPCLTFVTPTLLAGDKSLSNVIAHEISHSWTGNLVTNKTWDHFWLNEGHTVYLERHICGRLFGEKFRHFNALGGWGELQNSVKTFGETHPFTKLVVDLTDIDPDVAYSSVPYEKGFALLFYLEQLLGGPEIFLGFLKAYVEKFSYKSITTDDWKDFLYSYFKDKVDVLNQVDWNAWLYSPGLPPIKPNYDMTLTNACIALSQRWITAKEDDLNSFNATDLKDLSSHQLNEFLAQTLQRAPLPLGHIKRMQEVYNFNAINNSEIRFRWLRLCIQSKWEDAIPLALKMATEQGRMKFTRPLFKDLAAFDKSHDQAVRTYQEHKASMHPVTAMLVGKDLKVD
Assay: LTA4H Enzyme assay (cleavage of Arg-AMC, fluorescence)
Type: biochemical
Details: not given
Method: The compounds of the invention are assessed for the ability to interact with human LTA4 hydrolase in an enzymatic assay that measures the ability of the enzyme to cleave the peptide bond of arginyl-aminomethylcoumarin (Arg-AMC). LTA4H Enzyme (1 nM final), Arg-AMC substrate (50 μM final), and compound are combined in a reaction buffer (50 mM Tris-HCl (pH 7.5), 100 mM KCl, 0.5% bovine serum albumin) at room temperature for 1 h. The formation of product is assessed by measuring the fluorescence of aminomethylcoumarin product (excitation wavelength 380 nm/emission wavelength 460 nm).

Molecule `COC1CCN(Cc2ccc([C@H]3COc4ccccc4O3)cc2)CC1` [Example 98, 1-{4-[(2S)-2,3-dihydro-1,4-benzodioxin-2-yl]benzyl}-4-methoxypiperidine] has an IC50 of 0.61 nM.

Same assay, conditions: LTA4H Enzyme 1 nM, Arg-AMC substrate 50 μM, room temperature 1 h, fluorescence; read-out: IC50 values of LTA4H Enzyme assay

Compared with `O=C1CN(Cc2ccc([C@H]3COc4ccccc4O3)cc2)CN1` [Example 92, 1-{4-[(2S)-2,3-dihydro-1,4-benzodioxin-2-yl]benzyl}imidazolidin-4-one], `O=C1CCN(Cc2ccc([C@H]3COc4ccccc4O3)cc2)CCN1` [Example 131, 1-{4-[(2S)-2,3-dihydro-1,4-benzodioxin-2-yl]benzyl}-1,4-diazepan-5-one] is 21-fold lower in IC50: 36 nM for the first, 1.73 nM for the second.

`CN(C)C1CCN(Cc2ccc([C@H]3COc4ccccc4O3)cc2)C1` (stereo partly drawn) [Example 93, 1-{4-[(2S)-2,3-dihydro-1,4-benzodioxin-2-yl]benzyl}-N,N-dimethylpyrrolidin-3-amine] and `CN1CCC(N(C)Cc2ccc([C@H]3COc4ccccc4O3)cc2)CC1` [Example 110, N-{4-[(2S)-2,3-dihydro-1,4-benzodioxin-2-yl]benzyl}-N,1-dimethylpiperidin-4-amine] are within 1.5-fold of each other in IC50: 1.98 nM for the first, 2.15 nM for the second.

`O=C1CCCCN1C1CCN(Cc2ccc([C@H]3COc4ccccc4O3)cc2)CC1` [Example 94, 1′-{4-[(2S)-2,3-dihydro-1,4-benzodioxin-2-yl]benzyl}-1,4′-bipiperidin-2-one] and `CN1CCCC2(CCN(Cc3ccc([C@H]4COc5ccccc5O4)cc3)CC2)C1=O` [Example 120, 9-{4-[(2S)-2,3-dihydro-1,4-benzodioxin-2-yl]benzyl}-2-methyl-2,9-diazaspiro[5.5]undecan-1-one] are within 1.5-fold of each other in IC50: 0.45 nM for the first, 0.51 nM for the second.

Going from `c1ccc2c(c1)OC[C@H](c1ccc(CN(CC3CC3)C3CCCCC3)cc1)O2` [Example 95, N-(cyclopropylmethyl)-N-{4-[(2S)-2,3-dihydro-1,4-benzodioxin-2-yl]benzyl}cyclohexanamine] to `CN(C)CCN(Cc1ccc([C@H]2COc3ccccc3O2)cc1)C1CCCCC1` [Example 104, N-cyclohexyl-N-{4-[(2S)-2,3-dihydro-1,4-benzodioxin-2-yl]benzyl}-N′,N′-dimethylethane-1,2-diamine], the IC50 falls from 0.49 nM to 0.18 nM (2.7-fold). The second is the more potent here.

`O=C(NCCO)C1CCN(Cc2ccc([C@H]3COc4ccccc4O3)cc2)CC1` [Example 96, 1-{4-[(2S)-2,3-dihydro-1,4-benzodioxin-2-yl]benzyl}-N-(2-hydroxyethyl)piperidine-4-carboxamide] and `CNC(=O)C1CCN(Cc2ccc([C@H]3COc4cccnc4O3)cc2)CC1` [Example 152, 1-{4-[(3S)-2,3-dihydro[1,4]dioxino[2,3-b]pyridin-3-yl]benzyl}-N-methylpiperidine-4-carboxamide] are within 1.5-fold of each other in IC50: 0.22 nM for the first, 0.17 nM for the second.

`C[C@H]1CC[C@H](NCc2ccc([C@H]3COc4ccccc4O3)cc2)CC1` [Example 100, trans-N-{4-[(2S)-2,3-dihydro-1,4-benzodioxin-2-yl]benzyl}-4-methylcyclohexanamine] and `c1ccc2c(c1)OC[C@H](c1ccc(CNC3CCCOC3)cc1)O2` (stereo partly drawn) [Example 103, N-{4-[(2S)-2,3-dihydro-1,4-benzodioxin-2-yl]benzyl}tetrahydro-2H-pyran-3-amine] are within 1.5-fold of each other in IC50: 2.36 nM for the first, 2.4 nM for the second.

Going from `CC1COCCN1Cc1ccc([C@H]2COc3ccccc3O2)cc1` (stereo partly drawn) [Example 107, 4-{4-[(2S)-2,3-dihydro-1,4-benzodioxin-2-yl]benzyl}-3-methylmorpholine] to `CN1CC(NCc2ccc([C@H]3COc4ccccc4O3)cc2)CCC1=O` (stereo partly drawn) [Example 108, 5-({4-[(2S)-2,3-dihydro-1,4-benzodioxin-2-yl]benzyl}amino)-1-methylpiperidin-2-one], the IC50 falls from 1.35 nM to 0.87 nM (1.6-fold).

Compared with `Oc1ccc(CNCc2ccc([C@H]3COc4ccccc4O3)cc2)cc1` [Example 111, 4-[({4-[(2S)-2,3-dihydro-1,4-benzodioxin-2-yl]benzyl}amino)methyl]phenol], `Oc1ccc2c(c1)CCN(Cc1ccc([C@H]3COc4ccccc4O3)cc1)C2` [Example 112, 2-{4-[(2S)-2,3-dihydro-1,4-benzodioxin-2-yl]benzyl}-1,2,3,4-tetrahydroisoquinolin-6-ol] is 2.1-fold lower in IC50: 2.25 nM for the first, 1.07 nM for the second. The second is the more potent here.

Going from `O=C1CCC2(CCN(Cc3ccc([C@H]4COc5ccccc5O4)cc3)C2)N1` (stereo partly drawn) [Example 117, 7-{4-[(2S)-2,3-dihydro-1,4-benzodioxin-2-yl]benzyl}-1,7-diazaspiro[4.4]nonan-2-one] to `O=C1CCC2(CCN(Cc3ccc([C@H]4COc5cccnc5O4)cc3)C2)N1` (stereo partly drawn) [Example 127, 7-{4-[(3S)-2,3-dihydro[1,4]dioxino[2,3-b]pyridin-3-yl]benzyl}-1,7-diazaspiro[4.4]nonan-2-one], the IC50 falls from 0.23 nM to 0.12 nM (1.9-fold). The second is the more potent here.

First: NC(=O)N1CCCC12CCN(Cc1ccc([C@H]3COc4ccccc4O3)cc1)C2 (stereo partly drawn) [Example 119, 7-{4-[(2S)-2,3-dihydro-1,4-benzodioxin-2-yl]benzyl}-1,7-diazaspiro[4.4]nonane-1-carboxamide]
Second: COCC(=O)N1CCCC12CCN(Cc1ccc([C@H]3COc4ccccc4O3)cc1)C2 (stereo partly drawn) [Example 128, 1-(7-{4-[(2S)-2,3-dihydro-1,4-benzodioxin-2-yl]benzyl}-1,7-diazaspiro[4.4]non-1-yl)-2-methoxyethanone]
The IC50 of the first is 6.5-fold lower: 0.1 nM for the first, 0.65 nM for the second. The first is the more potent here.

First: CS(=O)(=O)N1CCCC12CCN(Cc1ccc([C@H]3COc4ccccc4O3)cc1)C2 (stereo partly drawn) [Example 122, 7-{4-[(2S)-2,3-dihydro-1,4-benzodioxin-2-yl]benzyl}-1-(methylsulfonyl)-1,7-diazaspiro[4.4]nonane]
Second: N#CCN1CCCC12CCN(Cc1ccc([C@H]3COc4ccccc4O3)cc1)C2 (stereo partly drawn) [Example 124, (7-{4-[(2S)-2,3-dihydro-1,4-benzodioxin-2-yl]benzyl}-1,7-diazaspiro[4.4]non-1-yl)acetonitrile]
The IC50 of the first is 2.7-fold lower: 0.91 nM for the first, 2.45 nM for the second.

First: CN1CCC2(CCN(Cc3ccc([C@H]4COc5cccnc5O4)cc3)CC2)C1=O [Example 129, 8-{4-[(3S)-2,3-dihydro[1,4]dioxino[2,3-b]pyridin-3-yl]benzyl}-2-methyl-2,8-diazaspiro[4.5]decan-1-one]
Second: CN1CCCC2(CCN(Cc3ccc([C@H]4COc5ccccc5O4)cc3)CC2)C1=O [Example 130, 9-[(S)-4-(2,3-Dihydro-benzo[1,4]dioxin-2-yl)-benzyl]-2-methyl-2,9-diaza-spiro[5.5]undecan-1-one]
The IC50 of the first is 2.2-fold lower: 0.23 nM for the first, 0.51 nM for the second.

Going from `O=C1CCN(Cc2ccc([C@H]3COc4cccnc4O3)cc2)CCN1` [Example 132, 1-{4-[(3S)-2,3-dihydro[1,4]dioxino[2,3-b]pyridin-3-yl]benzyl}-1,4-diazepan-5-one] to `c1cnc2c(c1)OC[C@H](c1ccc(CN3CCCOCC3)cc1)O2` [Example 150, (3S)-3-[4-(1,4-oxazepan-4-ylmethyl)phenyl]-2,3-dihydro[1,4]dioxino[2,3-b]pyridine], the IC50 falls from 0.91 nM to 0.21 nM (4.3-fold). The second is the more potent here.

First: c1cnc2c(c1)OC[C@H](c1ccc(CNC3CCCC3)cc1)O2 [Example 135, N-{4-[(3S)-2,3-dihydro[1,4]dioxino[2,3-b]pyridin-3-yl]benzyl}cyclopentanamine]
Second: O[C@@H]1CCN(Cc2ccc([C@H]3COc4cccnc4O3)cc2)C1 [Example 144, (3R)-1-{4-[(3S)-2,3-dihydro[1,4]dioxino[2,3-b]pyridin-3-yl]benzyl}pyrrolidin-3-ol]
The IC50 of the first is 3.4-fold higher: 0.47 nM for the first, 0.14 nM for the second. The second is the more potent here.

Compared with `NC(=O)C1CCCN(Cc2ccc([C@H]3COc4cccnc4O3)cc2)C1` (stereo partly drawn) [Example 136, 1-{4-[(3S)-2,3-dihydro[1,4]dioxin[2,3-b]pyridin-3-yl]benzyl}piperidine-3-carboxamide], `O[C@H]1CCN(Cc2ccc([C@H]3COc4cccnc4O3)cc2)C1` [Example 147, (3S)-1-{4-[(3S)-2,3-dihydro[1,4]dioxino[2,3-b]pyridin-3-yl]benzyl}pyrrolidin-3-ol] is 1.8-fold higher in IC50: 0.19 nM for the first, 0.35 nM for the second.

`CN1CCCN(Cc2ccc([C@H]3COc4cccnc4O3)cc2)CC1` [Example 143, (3S)-3-{4-[(4-methyl-1,4-diazepan-1-yl)methyl]phenyl}-2,3-dihydro[1,4]dioxino[2,3-b]pyridine] and `CC(=O)N1CCCN(Cc2ccc([C@H]3COc4cccnc4O3)cc2)CC1` [Example 148, 1-(4-{4-[(3S)-2,3-dihydro[1,4]dihydro[2,3-b]pyridin-3-yl]benzyl}-1,4-diazepan-1-yl)ethanone] are within 1.5-fold of each other in IC50: 0.3 nM for the first, 0.28 nM for the second.

`OCC1CCN(Cc2ccc([C@H]3COc4cccnc4O3)cc2)CC1` [Example 146, (1-{4-[(3S)-2,3-dihydro[1,4]dioxino[2,3-b]pyridin-3-yl]benzyl}piperidin-4-yl)methanol] and `OCCCC1CCN(Cc2ccc([C@H]3COc4cccnc4O3)cc2)CC1` [Example 149, 3-(1-{4-[(3S)-2,3-dihydro[1,4]dioxino[2,3-b]pyridin-3-yl]benzyl}piperidin-4-yl)propan-1-ol] are within 1.5-fold of each other in IC50: 0.29 nM for the first, 0.24 nM for the second.

`O=C(O)CCCC1CCN(Cc2ccc([C@H]3COc4cccnc4O3)cc2)CC1` [Example 151, 4-(1-{4-[(3S)-2,3-dihydro[1,4]dioxino[2,3-b]pyridin-3-yl]benzyl}piperidin-4-yl)butanoic acid] gave an IC50 of 0.1 nM.
